Nine compounds from ChEMBL document CHEMBL5120845, “Design and synthesis of novel macrolones bridged with linkers from 11,12-positions of macrolides” (Bioorg Med Chem Lett, 2022) can be followed below.

In brackets after ≈: the same amount, converted by molar mass. Some results are limits rather than exact numbers.

Usually half-life stands for the time in which the quantity being followed falls by half. Read a high half-life as slow decline.

The test system of data set [1] is Streptococcus pneumoniae. The experiment in a line: Antibacterial activity against Streptococcus pneumoniae ATCC 49619 by microbroth dilution method. Type of data set: functional. For orientation: Broth dilution looks for growth in wells or tubes with falling amounts of substance.
Data set [2] has as its system Streptococcus pneumoniae. The experiment in a line: Antibacterial activity against Streptococcus pneumoniae 07P390 by microbroth dilution method. Type of data set: functional.
The test system of data set [3] is Streptococcus pneumoniae. The experiment in a line: Antibacterial activity against Streptococcus pneumoniae PU09 by microbroth dilution method. Type of data set: functional.
Another data set concerns Streptococcus pyogenes. The data set is described as follows: Antibacterial activity against Streptococcus pyogenes 12-206 by microbroth dilution method. Type of data set: functional.
In data set [4] the test system is Staphylococcus aureus. The data set is described as follows: Antibacterial activity against Staphylococcus aureus 15B196 by microbroth dilution method. It counts as functional.
In data set [5] the test system is Staphylococcus aureus. The data set is described as follows: Antibacterial activity against Staphylococcus aureus PU32 by microbroth dilution method. It counts as functional.
The next data set relates to Haemophilus influenzae. The experiment in a line: Antibacterial activity against Haemophilus influenzae ATCC 49247 by microbroth dilution method. It counts as functional.
Data set [6] in a line: Stability in rat liver microsomes assessed as unchanged drug level at 1 uM by LC-MS/MS analysis. It counts as ADME, Microsome. The following applies: time 60 min, read-out: Stability.
A short description of data set [7]: Stability in rat liver microsomes assessed as unchanged drug level at 1 uM after 60 mins by LC-MS/MS analysis. Type of data set: ADME, Microsome. Particulars: read-out: Stability. (In general: Liver microsomes are a subcellular fraction often used to study metabolism.)
Data set [8] in a line: Half life in human liver microsomes at 1 uM by LC-MS/MS analysis. It counts as ADME, Microsome.
Data set [9] is described as follows: Intrinsic clearance in human liver microsomes at 1 uM by LC-MS/MS analysis. It counts as ADME, Microsome. Particulars: read-out: CLH.
In data set [10] the test system is Mycoplasmoides pneumoniae. The data set is described as follows: Antibacterial activity against erythromycin-susceptible Mycoplasma pneumoniae ATCC 29342 by microbroth dilution method. It counts as functional.
Data set [11] relates to Mycoplasmoides pneumoniae. The data set is described as follows: Antibacterial activity against erythromycin-resistant Mycoplasma pneumoniae A2058G by microbroth dilution method. Type of data set: functional.
Data set [12] has as its system Mycoplasmoides pneumoniae. The data set is described as follows: Antibacterial activity against erythromycin-resistant Mycoplasma pneumoniae A2059G by microbroth dilution method. Type of data set: functional.
For data set [13], the system named is Mycoplasmoides pneumoniae. The data set is described as follows: Antibacterial activity against erythromycin-resistant Mycoplasma pneumoniae A2058T by microbroth dilution method. Type of data set: functional.

Regarding `CC[C@H]1OC(=O)[C@H](C)C(=O)[C@H](C)[C@@H](O[C@@H]2O[C@H](C)C[C@H](N(C)C)[C@H]2O)[C@](C)(OC)C[C@@H](C)C(=O)[C@H](C)[C@H]2N(CCCCc3ccc4c(=O)c(C(=O)O)cn(C5CC5)c4c3)C(=O)O[C@]12C`, the MIC in the data set with Streptococcus pneumoniae [1] was at most 0.008 µg/mL; in the data set on Streptococcus pneumoniae [2] it was 2 µg/mL (≈ 2.23 µM); against Streptococcus pneumoniae [3], 0.5 µg/mL (≈ 0.558 µM); in the data set on Streptococcus pyogenes, 0.25 µg/mL (≈ 0.279 µM); in the data set with Staphylococcus aureus [4] it was 8 µg/mL (≈ 8.93 µM); against Staphylococcus aureus [5] it was 1 µg/mL (≈ 1.12 µM). Also, the MIC was 4 µg/mL (≈ 4.46 µM) against Haemophilus influenzae; 0.008 µg/mL (≈ 0.00893 µM) in data set [10]; 32 µg/mL (≈ 35.7 µM) in [11]; 32 µg/mL (≈ 35.7 µM) in data set [12]; 16 µg/mL (≈ 17.9 µM) in [13]. Moreover, the remaining at 1 h, 1 µM in data set [6] came to 100%; in data set [7] it was 35.1%. The half-life at 1 µM in data set [8] is 39.1 min. Further, in [9], the CLint scaled at 1 µM was 31.9 mL/min/kg.

Consider `CC[C@H]1OC(=O)[C@H](C)C(=O)[C@H](C)[C@@H](O[C@@H]2O[C@H](C)C[C@H](N(C)C)[C@H]2O)[C@](C)(OC)C[C@@H](C)C(=O)[C@H](C)[C@H]2N(CCCN3CCN(c4cc5c(cc4F)c(=O)c(C(=O)O)cn5C4CC4)CC3)C(=O)O[C@]12C`, for which the MIC turned out to be 0.016 µg/mL (≈ 0.0163 µM) in the data set with Streptococcus pneumoniae [1]; 0.12 µg/mL (≈ 0.122 µM) against Streptococcus pneumoniae [2]; 1 µg/mL (≈ 1.02 µM) in the data set with Streptococcus pneumoniae [3]; 1 µg/mL (≈ 1.02 µM) against Streptococcus pyogenes; 64 µg/mL (≈ 65 µM) with Staphylococcus aureus [4]; 1 µg/mL (≈ 1.02 µM) against Staphylococcus aureus [5]. Moreover, the MIC with Haemophilus influenzae stood at 8 µg/mL (≈ 8.13 µM); in data set [10], 0.008 µg/mL (≈ 0.00813 µM); in data set [11], 8 µg/mL (≈ 8.13 µM); in data set [12], 8 µg/mL (≈ 8.13 µM); in data set [13] it was 8 µg/mL (≈ 8.13 µM). Besides, the remaining at 1 h, 1 µM was 95.1% in data set [6] and 65% in data set [7]. Moreover, the half-life at 1 µM in data set [8] was found to be 110 min. Further, the CLint scaled at 1 µM in [9] was 11.3 mL/min/kg.

On to `CC[C@H]1OC(=O)[C@H](C)C(=O)[C@H](C)[C@@H](O[C@@H]2O[C@H](C)C[C@H](N(C)C)[C@H]2O)[C@](C)(OC)C[C@@H](C)C(=O)[C@H](C)[C@H]2N(CCC#Cc3ccc4c(=O)c(C(N)=O)cn(C5CC5)c4c3)C(=O)O[C@]12C`, for which the MIC in the data set with Streptococcus pneumoniae [1] was 0.06 µg/mL (≈ 0.0673 µM); with Streptococcus pneumoniae [2], 128 µg/mL (≈ 144 µM); against Streptococcus pneumoniae [3] it was 0.12 µg/mL (≈ 0.135 µM); against Streptococcus pyogenes, 32 µg/mL (≈ 35.9 µM); in the data set on Staphylococcus aureus [4], 512 µg/mL (≈ 575 µM); against Staphylococcus aureus [5], 1 µg/mL (≈ 1.12 µM). In the data set with Haemophilus influenzae, this compound showed an MIC of 128 µg/mL (≈ 144 µM).

Regarding `CC[C@H]1OC(=O)[C@H](C)C(=O)[C@H](C)[C@@H](O[C@@H]2O[C@H](C)C[C@H](N(C)C)[C@H]2O)[C@](C)(OC)C[C@@H](C)C(=O)[C@H](C)[C@H]2N(CCCCCC#Cc3ccc4c(c3)c(=O)c(C(=O)O)cn4C3CC3)C(=O)O[C@]12C`, the MIC was at most 0.008 µg/mL with Streptococcus pneumoniae [1]; 32 µg/mL (≈ 34.3 µM) in the data set on Streptococcus pneumoniae [2]; 1 µg/mL (≈ 1.07 µM) with Streptococcus pneumoniae [3]; 2 µg/mL (≈ 2.14 µM) in the data set with Streptococcus pyogenes; 128 µg/mL (≈ 137 µM) against Staphylococcus aureus [4]; 8 µg/mL (≈ 8.56 µM) against Staphylococcus aureus [5]. Also, the MIC in the data set with Haemophilus influenzae came to 32 µg/mL (≈ 34.3 µM).

As for `CC[C@H]1OC(=O)[C@H](C)C(=O)[C@H](C)[C@@H](O[C@@H]2O[C@H](C)C[C@H](N(C)C)[C@H]2O)[C@](C)(OC)C[C@@H](C)C(=O)[C@H](C)[C@H]2N(CCCN3CCN(c4cc5c(cc4F)c(=O)c(C(N)=O)cn5C4CC4)CC3)C(=O)O[C@]12C`, the MIC in the data set on Streptococcus pneumoniae [1] was 0.12 µg/mL (≈ 0.122 µM); in the data set on Streptococcus pneumoniae [2] it was 256 µg/mL (≈ 260 µM); against Streptococcus pneumoniae [3], 2 µg/mL (≈ 2.03 µM); in the data set with Streptococcus pyogenes it was 8 µg/mL (≈ 8.14 µM); with Staphylococcus aureus [4], 512 µg/mL (≈ 521 µM); against Staphylococcus aureus [5], 2 µg/mL (≈ 2.03 µM). Also, the MIC in the data set with Haemophilus influenzae amounted to 128 µg/mL (≈ 130 µM).

As to `O=C(O)c1cn(C2CC2)c2cc(N3CCNCC3)c(F)cc2c1=O` [CIPROFLOXACIN], the MIC against Streptococcus pneumoniae [1] was 1 µg/mL (≈ 3.02 µM); with Streptococcus pneumoniae [2], 2 µg/mL (≈ 6.04 µM); against Streptococcus pneumoniae [3], 2 µg/mL (≈ 6.04 µM); in the data set with Streptococcus pyogenes, 0.25 µg/mL (≈ 0.754 µM); in the data set with Staphylococcus aureus [4], 1 µg/mL (≈ 3.02 µM); in the data set on Staphylococcus aureus [5], 32 µg/mL (≈ 96.6 µM). This compound also returned an MIC in the data set on Haemophilus influenzae of 0.03 µg/mL (≈ 0.0905 µM).

As for `CCOc1ccc2ccc(=O)oc2c1`, the results for the remaining at 1 h, 1 µM in data set [6] and in [7] were 0.695% and 8.69%, respectively. Also, the half-life at 1 µM in data set [8] is 17.8 min. Besides, the CLint scaled at 1 µM in [9] came to 70.2 mL/min/kg.

As to `CC[C@H]1OC(=O)[C@H](C)C(=O)[C@H](C)[C@@H](O[C@@H]2O[C@H](C)C[C@H](N(C)C)[C@H]2O)[C@](C)(OC)C[C@@H](C)C(=O)[C@H](C)[C@H]2N(CCCCn3cnc(-c4cccnc4)c3)C(=O)O[C@]12C` [TELITHROMYCIN], the MIC against Streptococcus pneumoniae [1] amounted to 0.008 µg/mL (≈ 0.00985 µM); against Streptococcus pneumoniae [2], 0.06 µg/mL (≈ 0.0739 µM); with Streptococcus pneumoniae [3], 1 µg/mL (≈ 1.23 µM); with Streptococcus pyogenes, 0.12 µg/mL (≈ 0.148 µM); against Staphylococcus aureus [4], 64 µg/mL (≈ 78.8 µM); against Staphylococcus aureus [5] it was 0.5 µg/mL (≈ 0.616 µM). Moreover, the MIC in the data set on Haemophilus influenzae is 4 µg/mL (≈ 4.93 µM); in data set [10], 0.008 µg/mL (≈ 0.00985 µM); in [11] it was 256 µg/mL (≈ 315 µM); in [12], 256 µg/mL (≈ 315 µM); in data set [13], 256 µg/mL (≈ 315 µM). Also, the remaining at 1 h, 1 µM in data set [6] is 93.2%; in [7], 26.3%. This compound also came in with a half-life at 1 µM in [8] of 32.4 min. Further, the CLint scaled at 1 µM in [9] stood at 38.4 mL/min/kg.

Take `CC[C@H]1OC(=O)[C@H](C)C(=O)[C@H](C)[C@@H](O[C@@H]2O[C@H](C)C[C@H](N(C)C)[C@H]2O)[C@](C)(OC)C[C@@H](C)C(=O)[C@H](C)[C@H]2N(CCCCCC#Cc3ccc4c(c3)c(=O)c(C(N)=O)cn4C3CC3)C(=O)O[C@]12C`: the MIC against Streptococcus pneumoniae [1] amounted to 0.016 µg/mL (≈ 0.0171 µM); with Streptococcus pneumoniae [2], 4 µg/mL (≈ 4.29 µM); with Streptococcus pneumoniae [3], 1 µg/mL (≈ 1.07 µM); against Streptococcus pyogenes, 2 µg/mL (≈ 2.14 µM); in the data set on Staphylococcus aureus [4], 128 µg/mL (≈ 137 µM); against Staphylococcus aureus [5], 8 µg/mL (≈ 8.57 µM). This compound also gave an MIC in the data set on Haemophilus influenzae of 64 µg/mL (≈ 68.6 µM).
